Results as given in patent publication US4493839A, “1-Carbapenem-3-carboxylic esters as anti-inflammatory agents” (Merck & Co., Inc., priority 1982, dated 1985).

Molecular target: T1, Human Polymorphonuclear Leukocyte Elastase (Homo sapiens, UniProt P08246)
T1 construct: Crude extract of human polymorphonuclear leukocytes (PMN) containing elastase activity; endogenous in cells; host or cells: human polymorphonuclear leukocytes (crude extract)
T1 sequence (P08246 30-247 limits assumed): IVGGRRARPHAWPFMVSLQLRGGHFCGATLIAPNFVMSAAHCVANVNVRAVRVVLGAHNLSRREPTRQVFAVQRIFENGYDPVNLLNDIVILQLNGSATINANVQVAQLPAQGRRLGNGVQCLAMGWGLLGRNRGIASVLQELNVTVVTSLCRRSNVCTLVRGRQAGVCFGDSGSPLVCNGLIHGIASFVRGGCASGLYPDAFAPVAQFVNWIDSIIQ
Test: Enzyme assay for the inhibition of human polymorphonuclear leukocyte elastase via hydrolysis of N-t-Boc-alanyl-alanyl-prolylalanine-p-nitroanilide
Format: biochemical
Conditions: measured within 2 minutes, crude PMN extract, 0.2 mM Boc-AAPAN, pH 7.5; for inhibition at 20 µg/mL: Conc. 20 μg/ml; for inhibition at 50 µg/mL: Conc. 50 μg/ml; for inhibition at 5 µg/mL: Conc. 5 μg/ml; for inhibition at 0.5 µg/mL: Conc. 0.5 μg/ml; for inhibition at 1 µg/mL: Conc. 1 μg/ml; for inhibition at 2 µg/mL: Conc. 2 μg/ml; for inhibition at 10 µg/mL: Conc. 10 μg/ml
Experimental: Protocol--Enzyme Assays for the Inhibition of Human Polymorphonuclear Leukocyte Elastase Via Hydrolysis of N-t-Boc-alanyl-alanyl-prolylalanine-p-nitroanilide
0.05M TES (N-tris[hydroxymethyl]methyl-2-amino-ethanesulfonic acid) Buffer, pH 7.5.
0.2 mM N-to-Boc-alanyl-alanyl-Prolyl-Alanine-p-nitroanilide (Boc-AAPAN).
To prepare substrate, the solid (m.w. 550) was first dissolved in 10.0 ml DMSO. Buffer at pH 7.5 was then added to a final volume of 100 ml.
Crude extract of human polymorphonuclear leukocytes (PMN) containing elastase activity.
Inhibitors (carbapenem esters) to be tested dissolved in DMSO just before use.
To 1.0 ml of 0.2 mM Boc-AAPAN in a cuvette, 0.01-0.1 ml of DMSO with or without inhibitor was added. After mixing, a measurement was taken at 410 mμ to detect any spontaneous hydrolysis due to presence of test compound. 0.05 Milliliters of PMN extract was then added and the ΔOD/min at 410 mμ was measured and recorded. Beckman model 35 spectrophotometer was used.
The elastase activity in the crude PMN extract may vary from one preparation to another. A control of each new batch is run, and the volume added in the assay procedure is adjusted according to activity.

For `CC=C1C(=O)N2C(C(=O)OCc3ccc([N+](=O)[O-])cc3)=C(SCCN3C(=O)c4ccccc4C3=O)CC12` (stereo not shown), the inhibition at 20 µg/mL was 47% and the inhibition at 50 µg/mL was 73%.
Compound `CC(O)C1C(=O)N2C(C(=O)OCc3ccc([N+](=O)[O-])cc3)=C(SCc3ccccc3)CC12` (stereo not shown) has an inhibition at 20 µg/mL of 50% and an inhibition at 50 µg/mL of 75%.
For `CC(O)C1C(=O)N2C(C(=O)OCc3ccc([N+](=O)[O-])cc3)=C(SCc3ccccn3)CC12` (stereo not shown), the inhibition at 5 µg/mL was 63% and the inhibition at 20 µg/mL was 100%.
Compound `CC(O)C1C(=O)N2C(C(=O)OCc3ccc([N+](=O)[O-])cc3)=C(Sc3ccncc3)CC12` (stereo not shown) has an inhibition at 0.5 µg/mL of 21%, an inhibition at 1 µg/mL of 72% and an inhibition at 5 µg/mL of 93%. It also gave an inhibition at 20 µg/mL of 100%.
In the case of `CC(O)C1C(=O)N2C(C(=O)OCc3ccc([N+](=O)[O-])cc3)=C(SCCO)CC12` (stereo not shown), the inhibition at 20 µg/mL is reported as 84% and the inhibition at 50 µg/mL is reported as 95%.
For `CC(OC(=O)OCc1ccccc1[N+](=O)[O-])C1C(=O)N2C(C(=O)OCc3ccccc3[N+](=O)[O-])=C(c3ccc(CN=[N+]=[N-])cc3)CC12` (stereo not shown), the inhibition at 1 µg/mL was 59%, the inhibition at 2 µg/mL was 66% and the inhibition at 5 µg/mL was 74%. For the same compound, the inhibition at 10 µg/mL was 76% and the inhibition at 50 µg/mL was 79%.
`CC(NC(=O)OCc1ccccc1[N+](=O)[O-])C1C(=O)N2C(C(=O)OCc3ccccc3[N+](=O)[O-])=CCC12` (stereo not shown) showed an inhibition at 5 µg/mL of 23%, an inhibition at 10 µg/mL of 57% and an inhibition at 20 µg/mL of 72%. For the same compound, the inhibition at 50 µg/mL was 82%.
Work on `CC(OC(=O)OCc1ccccc1[N+](=O)[O-])C1C(=O)N2C(C(=O)OCc3ccccc3[N+](=O)[O-])=CCC12` (stereo not shown) yielded an inhibition at 0.5 µg/mL of 27%, an inhibition at 1 µg/mL of 46% and an inhibition at 2 µg/mL of 78%. For the same compound, the inhibition at 5 µg/mL was 85%, the inhibition at 10 µg/mL was 88% and the inhibition at 20 µg/mL was 88%.
Compound `O=C(OCc1ccccc1)C1=C(SCc2ccccc2)CC2C(CO)C(=O)N12` (stereo not shown) [Benzyl] has an inhibition at 1 µg/mL of 77%, an inhibition at 5 µg/mL of 90% and an inhibition at 10 µg/mL of 93%. The inhibition at 50 µg/mL was 97%.
